Data as given in US20250304623A1, “PEPTIDES FOR INTRACELLULAR DELIVERY” (UNIVERSIDADE DE SANTIAGO DE COMPOSTELA, priority 2022, published 2025).
*: point of attachment. NHNH2 = NN*

Key:
Type in all cases: cell-based
HCT116 cells = test: EGFP mRNA delivery, robotic library screening, HCT116
Experimental: (§1) Cells were seeded in a 96 well plate the day before the experiment at a concentration of 50,000 cell/mL (100 μL/w) in DMEM+10% FBS+1% Gln-Abt. For robotic library screening, the delivery of EGFP-mRNA (from TriLink, fully substituted with 5-methoxyuridine, capped and polyadenylated; TriLink, CleanCap® EGFP mRNA (5moU), ref. L-7201) in six different cell lines was performed. Amphiphilic molecule stock solutions were prepared in DMSO as described above and diluted in DMEM to afford a range of concentrations. The solutions of EGFP-mRNA/amphiphilic molecule complexes were freshly prepared prior to the transfection experiments. 35 μL of the corresponding amphiphile were added to 10 μL of a solution of EGFP-mRNA at 10 ng/μL in DMEM. The mixture was shaken for 30 min at room temperature before the addition to the cells. The cell medium was aspirated, and cells were washed with PBS twice. Cells were covered with 39 μL of DMEM and 11 μL of the complex's solution were added to the cells and incubated for 4 h (final concentration of peptide=2.5, 5 and 10 μM; final concentration of EGFP-mRNA=25 ng/well). After the incubation, the medium was replaced by 100 μL of fresh DMEM supplemented with 10% FBS. The total EGFP fluorescence was quantified after 72 h in a well plate reader. Amphiphile transfection efficiency was compared and normalized to Lipofectamine® MessengerMax efficiency (value of 1 in Tables 1-5 and 7; double underlined numbers). All experiments were done in triplicate.
(§2) Tables 1-7: RLuc (pDNA) or EGFP (mRNA) expression levels were normalized to Lipofectamine reagents (value=1) and expressed as fold-times signal increase. In the case of siRNA, the siRNA treated cells fluorescence was compared with siMOCK control fluorescence, while Cas9-RNP mediated knockout was measured against the fluorescence of untreated cells. In both siRNA and Cas9-RNP, values are expressed as % fluorescence reduction. Amphiphile concentration was 5 μM in all cases. All experiments were performed in triplicate.
(§3) Tables 14-19 show the mean (triplicates) fluorescence intensity measured after the transfection of EGFP mRNA by different amphiphiles at different concentrations in a variety of cell lines. Background fluorescence values, accounted by untreated control cells, were subtracted for processing.

A549 cells = test: EGFP mRNA delivery, robotic library screening, A549
Experimental: as §1, §2, §3

[1] = system: Hek293 cells expressing EGFP; test: Cas9-RNP delivery against EGFP (gene editing, plate reader), Hek293
Experimental: To generate an EGFP expressing HeLa cell line, HeLa cells were transfected with EGFP pDNA (pEGFP-C1, Clontech) and stable transfectants were selected with 400 μg/mL of G-418 (Millipore). Green clones were selected by epifluorescence microscopy and tested for EGFP expression stability through several passages. […] All other EGFP-expressing cell lines were obtained in a similar way from parent non-EGFP-expressing cell lines.
Cells expressing EGFP were seeded in a 96 well plate the day before the experiment at a concentration of 50,000 cell/mL (100 μL/w) in DMEM+10% FBS+1% Gln-Abt. For robotic library screening, the delivery of Cas9-RNP against EGFP (RNP designed to knock-out the gene encoding for the enhanced green fluorescent protein (EGFP)) was performed. For RNP assembly, 9.2 μL of crRNA and 9.2 μL of tracrRNA were mixed in 211.6 μL of Nuclease-Free Duplex Buffer (IDT), incubated for 5 min at 95° C. and slowly cooled at rt (see I. Lostalé-Seijo, et al. Peptide/Cas9 nanostructures for ribonucleoprotein cell membrane transport and gene edition, Chem. Sci., 2017). Cas9 protein was dissolved in DMEM at a final concentration of 4 μM and equal volumes of the RNA complex and Cas9 were mixed and incubated for 5 min at rt. 75 μL of the corresponding amphiphile concentrations were added to 5 μL of RNP at 2 μM. The mixture was shaken for 30 min at room temperature before the addition to the cells. The cell medium was aspirated, and cells were washed twice with PBS. Cells were covered with 30 μL of DMEM and 20 μL of the RNP/amphiphile complexes were added to the cells (final peptide concentrations=2.5, 5 and 10 μM; final Cas9-RNP concentration=50 nM) and incubated for 4 h. After the incubation, the medium was replaced by 100 μL of fresh DMEM supplemented with 10% FBS. The total EGFP fluorescence was quantified after 72 h in a plate reader (FIG. 2, Table 1 (right) and Table 6). All experiments were done in triplicate. […]
Tables 26-31 show the mean (triplicates) percentage of gene editing, accounted by GFP fluorescence intensity decrease (% of reduction), measured after the transfection of Cas9-RNP by different amphiphiles at different concentrations in a variety of cell lines. Background values, accounted by untreated control cells, were subtracted for processing.

Hek293 cells = test: EGFP mRNA delivery, robotic library screening, Hek293
Experimental: as §1, §2, §3

“Ac-RK*LRRK*L-NH2 (Ac-RK(NHNH2)LRRK(NHNH2)L-NH2; not fully specified; printed as Ac-RK*LRRK*L-NH2; also: K*2,K*6: native or modified lysine (ε-amide to a linker)) [Peptide 7.2]” was tested, and the “mean fluorescence intensity (EGFP mRNA)” value (HCT116 cells; Dodecanal, 2.5 μM) was 613, the “mean fluorescence intensity (EGFP mRNA)” value (HCT116 cells; Dodecanal, 5 μM) was 672 and the “mean fluorescence intensity (EGFP mRNA)” value (HCT116 cells; Dodecanal, 10 μM) was 1077. For the same substance, the “mean fluorescence intensity (EGFP mRNA)” value (HCT116 cells; Myristoleyl, 2.5 μM) was 4952, the “mean fluorescence intensity (EGFP mRNA)” value (HCT116 cells; Myristoleyl, 5 μM) was 1710 and the “mean fluorescence intensity (EGFP mRNA)” value (A549 cells; Dodecanal, 2.5 μM) was 428. For the same substance, the “mean fluorescence intensity (EGFP mRNA)” value (A549 cells; Dodecanal, 5 μM) was −205, the “mean fluorescence intensity (EGFP mRNA)” value (A549 cells; Dodecanal, 10 μM) was −3 and the “mean fluorescence intensity (EGFP mRNA)” value (A549 cells; Myristoleyl, 2.5 μM) was 1101. For the same substance, the “mean fluorescence intensity (EGFP mRNA)” value (A549 cells; Myristoleyl, 5 μM) was 231, the “mean fluorescence intensity (EGFP mRNA)” value (A549 cells; Myristoleyl, 10 μM) was 123 and the “percentage of gene editing, GFP fluorescence intensity decrease (% of reduction)” value ([1]; Dodecanal, 5 μM) was −21%. The “percentage of gene editing, GFP fluorescence intensity decrease (% of reduction)” value ([1]; Dodecanal, 15 μM) was −29%, the “percentage of gene editing, GFP fluorescence intensity decrease (% of reduction)” value ([1]; Myristoleyl, 5 μM) was −23% and the “mean fluorescence intensity (EGFP mRNA)” value (Hek293 cells; Dodecanal, 2.5 μM) was 251. The “mean fluorescence intensity (EGFP mRNA)” value (Hek293 cells; Dodecanal, 5 μM) was 71, the “mean fluorescence intensity (EGFP mRNA)” value (Hek293 cells; Dodecanal, 10 μM) was 648 and the “mean fluorescence intensity (EGFP mRNA)” value (Hek293 cells; Myristoleyl, 2.5 μM) was 2550. For the same substance, the “mean fluorescence intensity (EGFP mRNA)” value (Hek293 cells; Myristoleyl, 5 μM) was 1729 and the “mean fluorescence intensity (EGFP mRNA)” value (Hek293 cells; Myristoleyl, 10 μM) was 591.

“Ac-RK*LRRK*LRK*-NH2 (Ac-RK(NHNH2)LRRK(NHNH2)LRK(NHNH2)-NH2; not fully specified; printed as Ac-RK*LRRK*LRK*-NH2; also: K*2,K*6,K*9: native or modified lysine (ε-amide to a linker)) [Peptide 9.3]” was tested, and the “mean fluorescence intensity (EGFP mRNA)” value (HCT116 cells; Dodecanal, 5 μM) was 526, the “mean fluorescence intensity (EGFP mRNA)” value (HCT116 cells; Myristoleyl, 2.5 μM) was 2151 and the “mean fluorescence intensity (EGFP mRNA)” value (HCT116 cells; Oleyl, 2.5 μM) was 1067. The “mean fluorescence intensity (EGFP mRNA)” value (HCT116 cells; Oleyl, 5 μM) was 910, the “mean fluorescence intensity (EGFP mRNA)” value (HCT116 cells; Oleyl, 10 μM) was 1044 and the “mean fluorescence intensity (EGFP mRNA)” value (HCT116 cells; Petroselinyl, 5 μM) was 919. The “mean fluorescence intensity (EGFP mRNA)” value (HCT116 cells; Petroselinyl, 10 μM) was 1252, the “mean fluorescence intensity (EGFP mRNA)” value (A549 cells; Myristoleyl, 5 μM) was 219 and the “mean fluorescence intensity (EGFP mRNA)” value (A549 cells; Myristoleyl, 10 μM) was −17. The “mean fluorescence intensity (EGFP mRNA)” value (A549 cells; Oleyl, 2.5 μM) was 89, the “mean fluorescence intensity (EGFP mRNA)” value (A549 cells; Oleyl, 5 μM) was 399 and the “mean fluorescence intensity (EGFP mRNA)” value (A549 cells; Oleyl, 10 μM) was 139. For the same substance, the “mean fluorescence intensity (EGFP mRNA)” value (A549 cells; Petroselinyl, 2.5 μM) was 94, the “mean fluorescence intensity (EGFP mRNA)” value (A549 cells; Petroselinyl, 5 μM) was 789 and the “mean fluorescence intensity (EGFP mRNA)” value (A549 cells; Petroselinyl, 10 μM) was 349. For the same substance, the “percentage of gene editing, GFP fluorescence intensity decrease (% of reduction)” value ([1]; Dodecanal, 5 μM) was −11%, the “percentage of gene editing, GFP fluorescence intensity decrease (% of reduction)” value ([1]; Dodecanal, 10 μM) was −53% and the “percentage of gene editing, GFP fluorescence intensity decrease (% of reduction)” value ([1]; Oleyl, 5 μM) was 12%. The “percentage of gene editing, GFP fluorescence intensity decrease (% of reduction)” value ([1]; Oleyl, 10 μM) was −5%, the “percentage of gene editing, GFP fluorescence intensity decrease (% of reduction)” value ([1]; Petroselinyl, 5 μM) was −12% and the “mean fluorescence intensity (EGFP mRNA)” value (Hek293 cells; Oleyl, 2.5 μM) was 1416. The “mean fluorescence intensity (EGFP mRNA)” value (Hek293 cells; Oleyl, 5 μM) was 2885, the “mean fluorescence intensity (EGFP mRNA)” value (Hek293 cells; Oleyl, 10 μM) was 466 and the “mean fluorescence intensity (EGFP mRNA)” value (Hek293 cells; Palmitoleyl, 5 μM) was 1665. For the same substance, the “mean fluorescence intensity (EGFP mRNA)” value (Hek293 cells; Palmitoleyl, 10 μM) was 1394, the “mean fluorescence intensity (EGFP mRNA)” value (Hek293 cells; Petroselinyl, 2.5 μM) was 1364 and the “mean fluorescence intensity (EGFP mRNA)” value (Hek293 cells; Petroselinyl, 5 μM) was 4636. For the same substance, the “mean fluorescence intensity (EGFP mRNA)” value (Hek293 cells; Petroselinyl, 10 μM) was 643.
